The values below come from publication PMC5967201, “The Odorant Binding Protein 6 Expressed in Sensilla Chaetica Displays Preferential Binding Affinity to Host Plants Volatiles in Ectropis obliqua” (Frontiers in Physiology, 2018).

The target of experiment [1] is T1, EoblOBP6 (Ectropis obliqua, UniProt A0A1L2BL92). Kind of experiment: Fluorescence competitive binding assay (displacement of 1-NPN from recombinant EoblOBP6). Here is the method:
(§1) Fluorescence binding assays were performed on a fluorescence spectrophotometer F-380 (Tianjin, China) with a 1 cm light path quartz cuvette and 10 nm slits for excitation and emission. The excitation wavelength was set at 337 nm, and the emission spectrum was recorded between 390 and 500 nm. Both the fluorescent probe N-phenyl-1-naphthylamine (1-NPN) and the tested chemicals were dissolved in methanol in preparation for 1 mM stock solution. […] The fluorescence intensities at the maximum fluorescence emission were plotted against the free ligand concentration to determine the binding constants. The bound ligand was evaluated from the fluorescence intensity in the assumption of the protein was 100% dynamic, with a stoichiometry of 1:1 (protein: ligand) at saturation. The binding curves were linearized using Scatchard Plot.

The next experiment relates to antennae of E. obliqua. Also noted: method as in Zhang Z. et al., 2015. As to conditions: ref Zhang Z. et al., 2015; cited from earlier work.
For experiment [2], the target named is T1, EoblOBP6. Nature of the experiment: Fluorescence binding assay of probe 1-NPN with recombinant EoblOBP6 (titration, Scatchard plot). On the procedure:
as §1, with “For the ligand binding assays, the tested compounds, including terpenoids, tea volatiles, herbivore-induced plant volatiles and non-volatile tastants, were selected according to the previously reported isolation from the E. obliqua host plant and non-host plant ([Sun X.L. et al., 2014]; [Zhang Z. et al., 2015]). Fluorescence” for “Fluorescence”, “saturation. […]” for “saturation.”, “dissociation constants of competitors” for “binding curves”, “calculated from the corresponding IC50 values following the equation: Ki = (IC50)/(1+(1-NPN)/K1-NPN), where (1-NPN) is the free concentration of 1-NPN and K1-NPN is the dissociation constant of the protein/1-NPN complex.” for “linearized using Scatchard Plot.”

The mark [3] stands for this setting: Table 1 volatiles, calculated from IC50: Ki = (IC50)/(1+(1-NPN)/K1-NPN).
Setting [4] is: Table 2 non-volatile tastants, calculated from IC50: Ki = (IC50)/(1+(1-NPN)/K1-NPN).
The mark [5] stands for this setting: Table 2 non-volatile tastants, competitor 2 to 30 μM, 1-NPN and EoblOBP6 both at 2 μM.
The mark [6] stands for this setting: Table 1 volatiles, calculated from IC50: Ki = (IC50)/(1+(1-NPN)/K1-NPN), read-out: Ki.
The mark [7] stands for this setting: Table 1 volatiles, competitor titrated 2 to 30 μM into 1-NPN and EoblOBP6 both at 2 μM, 50 mM Tris-HCl pH 7.4, read-out: IC50.

Entries after “also recorded” stand apart in the source; their conditions may differ. Like-named read-outs stand apart in the source and are kept apart here.

One may read the Ki as a measure of affinity in units of concentration, obtained from inhibition or displacement. As usually defined, the IC50 is the concentration that inhibits the measured activity by half. One may read the Kd as the free concentration of one partner at which half of the binding sites on the other are occupied at equilibrium, for simple one-to-one binding.

T1 sequence (A0A1L2BL92 entry or part of it): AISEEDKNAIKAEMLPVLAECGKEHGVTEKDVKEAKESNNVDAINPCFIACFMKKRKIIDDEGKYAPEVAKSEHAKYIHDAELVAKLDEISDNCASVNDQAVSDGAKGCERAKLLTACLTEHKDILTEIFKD

For the compound `CCCCCCCCC=O` [Nonanal], at EoblOBP6 [1] (setting [3]), the Ki entry is on record as “u.d”. `N#CCc1ccccc1` [Benzyl nitrile]: the inhibitory constant (Ki) result at EoblOBP6 [1] (setting [3]) is “u.d”.

Regarding `CC/C=C\CCOC(C)=O` [(Z)-3-hexenyl acetate], the Ki entry at EoblOBP6 [1] (setting [3]) is recorded as “u.d”. Same read-out and setting: under `CC1=CCC(C(C)C)=CC1` [γ-Terpinene] stands “u.d”. Turning to `OCc1ccccc1O[C@@H]1O[C@H](CO)[C@@H](O)[C@H](O)[C@H]1O` [D(-)-Salicin], on EoblOBP6 [1] (setting [4]), the Ki result is given as “u.d”. In addition, the IC50 result on EoblOBP6 [1] (setting [5]) is listed as “u.d”. For the compound `CC1=CC(=O)[C@@H]2C[C@H]1C2(C)C` [Verbenone], the Ki entry at EoblOBP6 [1] (setting [3]) was “u.d”. For the compound `CCCCCCOC(C)=O` [Hexyl acetate], on EoblOBP6 [1], the “binding ability to EoblOBP6 in words” value is on record as “could hardly bind”. Moreover, on EoblOBP6 [1] (setting [3]), the Ki entry is given as “u.d”.

For `Cn1c(=O)c2c(ncn2C)n(C)c1=O` [Caffeine, reference compound], the Ki entry at EoblOBP6 [1] (setting [4]) was “u.d”. Also, the IC50 result at EoblOBP6 [1] (setting [5]) is on record as “u.d”.

Take `O=Cc1ccccc1` [Benzaldehyde]: at EoblOBP6 [1], the IC50 came to 21.6 ± 0.84 µM and the inhibition constant Ki is 15.1 ± 0.58 µM. On to `CC1=CCC2CC1C2(C)C` (stereo not drawn) [α-Pinene], for which the Ki result at EoblOBP6 [1] (setting [3]) is “u.d”. Same read-out and setting: the entry for `C=C(C)[C@H]1CC=C(C)CC1` [Limonene] is “u.d”; for `C=C1CCC2CC1C2(C)C` (stereo not drawn) [(-)-β-Pinene] it is “u.d”. `O=C[C@H](O)[C@@H](O)[C@H](O)CO` [D-Xylose]: on EoblOBP6 [1] (setting [4]), the Ki entry was “u.d”. Also, the IC50 entry on EoblOBP6 [1] (setting [5]) is reported as “u.d”. As to `CCCCCCO` [1-Hexanol], at EoblOBP6 [1], the “binding ability to EoblOBP6 in words” value is reported as “could hardly bind”. Further, the Ki result on EoblOBP6 [1] (setting [3]) is on record as “u.d”. Regarding `C=C/C(C)=C/C/C=C(\C)CCC=C(C)C` [α-Farnesene], the “binding ability to EoblOBP6 in words” value at EoblOBP6 [1] is “high binding ability”. Also, the Ki at EoblOBP6 [1] (setting [6]) is 11 ± 0.29 µM. On EoblOBP6 [1] (setting [7]), the IC50 came out at 15.8 ± 0.42 µM.

On to `C=C1[C@H]2CC[C@H](C2)C1(C)C` [(+)-Camphene], for which the Ki result on EoblOBP6 [1] (setting [3]) is “u.d”.

As for `C=C/C(C)=C/CC=C(C)C` [β-Ocimene], at EoblOBP6 [1] (setting [3]), the Ki entry is “u.d”. Regarding `CCC/C=C/C=O` [(E)-2-hexenal], the Ki result at EoblOBP6 [1] (setting [3]) is on record as “u.d”.

With `CC(=O)/C=C/C1=C(C)CCCC1(C)C` [β-Ionone], the Ki entry at EoblOBP6 [1] (setting [3]) is recorded as “u.d”. For `OC[C@H]1OC(O)[C@H](O)[C@@H](O)[C@@H]1O` (stereo partly drawn) [D-Glucose], on EoblOBP6 [1] (setting [4]), the Ki entry was “u.d”. The IC50 result on EoblOBP6 [1] (setting [5]) is “u.d”. On to `C=C1CC/C=C(\C)CC[C@@H]2[C@@H]1CC2(C)C` [β-Caryophyllene], for which, on EoblOBP6 [1] (setting [3]), the Ki result is reported as “u.d”. As for `C[C@H](N)C(=O)O` [L-Alanine], the Ki result at EoblOBP6 [1] (setting [4]) is listed as “u.d”. Further, the concentration for half-maximal inhibition (IC50) result at EoblOBP6 [1] (setting [5]) was “u.d”. Take `OCc1ccccc1` [Benzyl alcohol]: at EoblOBP6 [1] (setting [3]), the Ki result is listed as “u.d”. Same read-out and setting: the entry for `CC1=C[C@H](O)[C@H]2C[C@@H]1C2(C)C` (relative stereo) [cis-Verbenol] is “u.d”. The same measure, in the same setting: under `C=CC(=C)CCC=C(C)C` [β-Myrcene] stands “u.d”. For the compound `O.Oc1cc(O)c2c(c1)O[C@H](c1ccc(O)c(O)c1)[C@@H](O)C2` [Catechin], the Ki entry at EoblOBP6 [1] (setting [4]) is listed as “u.d”. The IC50 result at EoblOBP6 [1] (setting [5]) was “u.d”. On to `COc1ccc2cc3[n+](cc2c1OC)CCc1cc2c(cc1-3)OCO2` [Berberine], for which, at EoblOBP6 [1], the IC50 stood at 7.94 ± 0.61 µM, the inhibition constant (Ki) came out at 5.55 ± 0.87 µM and the “binding ability to EoblOBP6 in words” value was “tightly bound; also recorded: bind strongly”. Take `CC/C=C\CCOC(=O)CCC` [(Z)-3-hexenyl butyrate]: the Ki entry at EoblOBP6 [1] (setting [3]) is reported as “u.d”. In the case of `CCCCCCCCCC=O` [Decanal], the “binding ability to EoblOBP6 in words” value at EoblOBP6 [1] is reported as “could hardly bind”. For the same compound, the inhibition constant (Ki) result at EoblOBP6 [1] (setting [3]) is given as “u.d”. Take `OC[C@H]1O[C@H](O[C@H]2O[C@H](CO)[C@@H](O)[C@H](O)[C@H]2O)[C@H](O)[C@@H](O)[C@@H]1O` [Trehalose]: the Ki result at EoblOBP6 [1] (setting [4]) is given as “u.d”. Further, at EoblOBP6 [1] (setting [5]), the IC50 entry is “u.d”. With `CC/C=C\CCO` [(Z)-3-hexenol], the “binding ability to EoblOBP6 in words” value at EoblOBP6 [1] is “could hardly bind”. Also, at EoblOBP6 [1] (setting [3]), the inhibition constant (Ki) result was “u.d”. On to `CC/C=C\CCOC(=O)CCCCC` [(Z)-3-hexenyl hexanoate], for which the Ki entry on EoblOBP6 [1] (setting [3]) is reported as “u.d”. Take `CC1=CC=C(C(C)C)CC1` [α-Terpinene]: on EoblOBP6 [1], the IC50 worked out at 26.2 ± 0.53 µM and the Ki came out at 18.3 ± 0.37 µM. For the same compound, in the experiment on antennae of E. obliqua, the “electrophysiological responses from the antennae” value is listed as “strong electrophysiological responses”. `CC1=CC[C@@H](C(C)(C)O)CC1` [α-Terpineol]: the Ki entry on EoblOBP6 [1] (setting [3]) is “u.d”. Regarding `c1ccc2[nH]ccc2c1` [Indole], at EoblOBP6 [1] (setting [3]), the Ki entry is “u.d”. As for `c1ccc(Nc2cccc3ccccc23)cc1` [1-NPN, N-phenyl-1-naphthylamine], the Kd on EoblOBP6 [2] amounted to 2.7 ± 0.24 µM. Turning to `Cn1c(=O)c2[nH]cnc2n(C)c1=O` [Theophylline, reference compound], the Ki entry on EoblOBP6 [1] (setting [4]) is “u.d”. In addition, at EoblOBP6 [1] (setting [5]), the IC50 result is recorded as “u.d”.

As for `N[C@@H](Cc1c[nH]cn1)C(=O)O` [L-Histidine], the Ki result on EoblOBP6 [1] (setting [4]) is “u.d”. Further, on EoblOBP6 [1] (setting [5]), the IC50 entry was “u.d”.

In the case of `CC12CCC(CC1=O)C2(C)C` (centres unmarked) [Camphor], the Ki result on EoblOBP6 [1] (setting [3]) is “u.d”. Take `COC(=O)c1ccccc1O` [Methyl salicylate]: on EoblOBP6 [1] (setting [3]), the Ki entry is “u.d”.

`OC[C@H]1O[C@@](CO)(O[C@H]2O[C@H](CO)[C@@H](O)[C@H](O)[C@H]2O)[C@@H](O)[C@@H]1O` [D-Sucrose]: at EoblOBP6 [1] (setting [4]), the Ki result is given as “u.d”. Also, on EoblOBP6 [1] (setting [5]), the IC50 result is “u.d”.

In the case of `C=CC(C)(O)CCC=C(C)CCC=C(C)C` (mixture of isomers) [Nerolidol], at EoblOBP6 [1], the half-inhibitory concentration (IC50) was determined as 15.6 ± 0.76 µM, the inhibition constant (Ki) was determined as 10.9 ± 0.53 µM and the “binding ability to EoblOBP6 in words” value is listed as “high binding ability”. As for `CC/C=C\CC=O` [(Z)-3-hexenal], the Ki entry at EoblOBP6 [1] (setting [3]) is listed as “u.d”. Turning to `CN1[C@@H]2CC[C@H]1C[C@@H](OC(=O)C(CO)c1ccccc1)C2` (some centres unmarked) [Atropine, reference compound], the Ki result at EoblOBP6 [1] (setting [4]) is recorded as “u.d”. The IC50 result on EoblOBP6 [1] (setting [5]) was “u.d”. As for `C/C1=C\CC/C(C)=C/CC(C)(C)/C=C/C1` [α-Caryophyllene], the Ki at EoblOBP6 [1] (setting [6]) was 15.6 ± 0.19 µM. Further, at EoblOBP6 [1] (setting [7]), the IC50 came to 22.4 ± 0.27 µM. With `C=CC(C)(O)CCC=C(C)C` (centres unmarked) [Linalool], on EoblOBP6 [1] (setting [3]), the Ki result is recorded as “u.d”.
